Reference: publication PMC11025159 (Journal of Translational Medicine, 2024)
Several values for one entry are separate records, joined by “and”; a condition that tells them apart may be missing. Equal entries are not always repeated. Structures can show the parent of a compound that is named as a salt.

Tests used:
DHT-induced AGA mice = assay: Hair regrowth in DHT-induced AGA mice model (topical, 28 days); type: in vivo, C57BL/6J mice
Method: (§1) C57BL/6 J mice (male) were obtained from CSIR-IIIM Animal House at 7 weeks of age. We used a DHT-induced AGA mice model for this study. […] At the end of the experiment, skin samples were collected and preserved in 10% neutral buffered formalin for tissue sectioning and staining using haematoxylin and eosin (H&E). The histopathological examinations were performed under the 10× and 40× objectives of light microscope (Magnus, Mx21i).
Dorsal skin samples from C57BL/6J mice were shaved and collected for histological and molecular analyses on Days 7, 14, 21, and 28. The full-thickness skin tissue was fixed in a 10% neutral buffered formalin solution (Sigma) overnight and subsequently dehydrated for embedding in paraffin. Haematoxylin and eosin (H&E) staining was performed on the skin tissue, and digital photomicrographs were taken from the representative areas using light microscope (Magnus, Mx21i).
The quantification of anagen initiation was assessed by observing changes in the dorsal skin colour of C57BL/6 mice, a phenomenon closely linked to the onset of the anagen phase. Anagen quantification was done by employing threshold analysis on dorsal skin colouration using ImageJ. The darkening of the skin, attributed to melanogenesis, strongly correlates with the progression of anagen. This analysis is visually depicted as a heatmap using GraphPad Prism 9.5 Software.

[1] = test system: athymic nude mice (NU/J Foxn1nu); assay: Hair growth in athymic nude mice (topical, 28 days); type: in vivo; details: for H&E skin histopathology finding / hair follicle grade: day 28
Method: (§2) The groups are as follows: Group 1-Control (untreated), Group 2-Vehicle control, Group 3-tofacitinib citrate (0.8 mg/Kg), Group 4-tofacitinib citrate (0.08 mg/Kg), Group 5-MJ04 (0.08 mg/Kg), Group 6-MJ04 (0.04 mg/Kg), Group 7-MJ04 (0.016 mg/Kg), Group 8-baricitinib (0.1 mg/Kg), Group 9-baricitinib (0.04 mg/Kg), and Group 10-baricitinib (0.02 mg/Kg). At the end of the experiment, skin samples were collected and preserved in 10% neutral buffered formalin for tissue sectioning and staining using haematoxylin and eosin (H&E). The histopathological examinations were performed under the 10× and 40× objectives of light microscope (Magnus, Mx21i), and hair follicles were graded on a scale of 0 to 4 (++++).
The skin samples collected from athymic nude mice (NU/J Foxn1^nu) were preserved in 10% neutral buffered formalin and processed for tissue sectioning. The skin sections (10 µm) of nude mice were stained using haematoxylin and eosin (H&E) and viewed under 10× and 40× objectives of the light microscope (Magnus, Mx21i). The histopathological examination of the samples was performed, and the hair follicles in the skin sections were graded on a scale of 0 to 4 (++++).

[2] = Body weight of athymic nude mice during topical treatment; type: in vivo, athymic nude mice (NU/J Foxn1nu); details: individual mice
Method: as §2, with “. The” for “The”, “The histopathological examinations were performed under the 10× and 40× objectives of light microscope (Magnus, Mx21i), and hair follicles were graded on a scale of 0 to 4 (++++).” left out

[3] = Body weight, biochemical and haematological parameters in DHT-induced AGA mice (0.5% testosterone then topical treatment); type: in vivo, C57BL/6J mice; details: for LYMPH: unit assumed
Method: The experiments were performed on C57BL/6 J and Athymic nude mice (NU/J Foxn1^nu) of 6–7 weeks of age obtained from Animal House Facility, CSIR-Indian Institute of Integrative Medicine (IIIM), Jammu, India. […] The animals were provided with ad libitum feed (standard pellet diet) and autoclaved RO water throughout the study. The body weight of mice was measured after seven days before treatment.
as §1
Every two weeks during the experimental period, mice were anesthetized, and the blood samples were collected into tubes containing heparin sodium to detect the total and differential white blood cells, haemoglobin, red blood cell, platelet count, mean corpuscular haemoglobin, mean corpuscular volume, red blood cell volume, mean platelet volume, and analyzed using an automated haematology analyzer (Model: XT1800i; Make: Sysmex).
Every two weeks during the experimental period, mice and rats were anesthetized, and blood samples were collected into non-heparinized tubes and then centrifuged at 1000 rpm at 4 °C for 10 min to obtain the serum. The biochemical parameters, including total protein, aspartate aminotransferase, alanine aminotransferase, total protein, albumin, total bilirubin, direct bilirubin, glucose, total cholesterol, triglyceride, low-density lipoprotein, high-density lipoprotein, creatinine, and uric acid, were measured using an automatic biochemical analyzer (Model: EM360; Make: Erba Mannheim).

Compound: C[C@@H]1CCN(C(=O)CC#N)C[C@@H]1N(C)c1ncnc2[nH]ccc12 [Tofacitinib, tofacitinib citrate, reference compound]
- H&E skin histopathology finding (DHT-induced AGA mice; 0.08mg/kg, Days 7, 14, 21, 28): Minimal epidermal thinning with few hair follicles on Days 7 and 14 and increased hair follicles on Days 21 and 28
- hair follicle phase (histopathology) (DHT-induced AGA mice; skin samples days 7, 14, 21, 28): at least in the anagen IIIc-IV phase
- entry into the anagen phase (DHT-induced AGA mice; topical once a day in presence of testosterone): rapid entry into the anagen phase within seven days of treatment
- mice displaying intense skin darkening followed by hair growth (DHT-induced AGA mice; within 10 days of treatment): around 90%
- H&E skin histopathology finding ([1]; 0.08 mg/kg): Mild epidermal thickening with the increased number of hair follicles
- hair follicle grade ([1]; 0.08 mg/kg): ++++ (graded on a scale ranging from 0 to 4 (++++))
- H&E skin histopathology finding ([1]; 0.8 mg/kg): Mild epidermal thickening with the increased number of hair follicles
- hair follicle grade ([1]; 0.8 mg/kg): ++++ (graded on a scale ranging from 0 to 4 (++++))
- early onset of hair ([1]; topical): 12 days
- Weight of nude mice (NU/J Foxn1nu) ([2]; 0.8 mg/kg (first group), DAY 1): 18.1 and 18.4 and 18.7 and 19.3 and 18.2
- Weight of nude mice (NU/J Foxn1nu) ([2]; 0.8 mg/kg (first group), DAY 7): 20.1 and 20.5 (2×) and 19.3 and 19.8
- Weight of nude mice (NU/J Foxn1nu) ([2]; 0.8 mg/kg (first group), DAY 14): 21.8 and 22.3 and 22.4 and 21.1 and 21.4
- Weight of nude mice (NU/J Foxn1nu) ([2]; 0.8 mg/kg (first group), DAY 21): 23.7 and 23.9 and 24.1 and 23.1 and 23.3
- Weight of nude mice (NU/J Foxn1nu) ([2]; 0.8 mg/kg (first group), DAY 28): 24.6 and 25.3 and 25.4 and 26.1 and 24.5
- Weight of nude mice (NU/J Foxn1nu) ([2]; 0.8 mg/kg (second group so printed), DAY 1): 18.4 and 18.5 (2×) and 18.9 and 19.3
- Weight of nude mice (NU/J Foxn1nu) ([2]; 0.8 mg/kg (second group so printed), DAY 7): 19.3 and 19.5 (2×) and 20.6 and 20.7
- Weight of nude mice (NU/J Foxn1nu) ([2]; 0.8 mg/kg (second group so printed), DAY 14): 21.1 and 21.4 and 21.3 and 21.8 and 22.1
- Weight of nude mice (NU/J Foxn1nu) ([2]; 0.8 mg/kg (second group so printed), DAY 21): 22.6 and 22.9 and 23.4 (2×) and 23.8
- Weight of nude mice (NU/J Foxn1nu) ([2]; 0.8 mg/kg (second group so printed), DAY 28): 24.8 and 25.1 and 25.3 and 25.4 and 26.1
- ALP ([3]; Day 21, 0.08 mg/Kg): 198 U/L
- ALT/SGPT ([3]; Day 21, 0.08 mg/Kg): 82 U/L
- AST/SGOT ([3]; Day 21, 0.08 mg/Kg): 80 U/L
- Cholesterol ([3]; Day 21, 0.08 mg/Kg): 216 mg/dL
- Creatine ([3]; Day 21, 0.08 mg/Kg): 0.49 mg/dL
- HCT ([3]; Day 21, 0.08 mg/Kg): 45%
- HDL ([3]; Day 21, 0.08 mg/Kg): 110 mg/dL
- LDL ([3]; Day 21, 0.08 mg/Kg): 134 mg/dL
- MCHC ([3]; Day 21, 0.08 mg/Kg): 28 g/dL
- MCV ([3]; Day 21, 0.08 mg/Kg): 51 fL
- NEUT ([3]; Day 21, 0.08 mg/Kg): 20.2%
- PLT ([3]; Day 21, 0.08 mg/Kg): 587 103/μl
- RBC ([3]; Day 21, 0.08 mg/Kg): 9.2 1012/l
- Total protein ([3]; Day 21, 0.08 mg/Kg): 5.0 g/dL
- Triglyceride ([3]; Day 21, 0.08 mg/Kg): 141 mg/dL
- Urea ([3]; Day 21, 0.08 mg/Kg): 49 mg/dL
- WBC ([3]; Day 21, 0.08 mg/Kg): 3.0 103/μl
- LYMPH ([3]; Day 21, 0.08 mg/Kg): 78.8%
- ALP ([3]; Day 21, 0.8 mg/Kg): 132 U/L
- ALT/SGPT ([3]; Day 21, 0.8 mg/Kg): 56 U/L
- AST/SGOT ([3]; Day 21, 0.8 mg/Kg): 111 U/L
- Cholesterol ([3]; Day 21, 0.8 mg/Kg): 211 mg/dL
- Creatine ([3]; Day 21, 0.8 mg/Kg): 0.63 mg/dL
- HCT ([3]; Day 21, 0.8 mg/Kg): 42%
- HDL ([3]; Day 21, 0.8 mg/Kg): 116 mg/dL
- LDL ([3]; Day 21, 0.8 mg/Kg): 126 mg/dL
- MCHC ([3]; Day 21, 0.8 mg/Kg): 29 g/dL
- MCV ([3]; Day 21, 0.8 mg/Kg): 52 fL
- NEUT ([3]; Day 21, 0.8 mg/Kg): 21.5%
- PLT ([3]; Day 21, 0.8 mg/Kg): 917 103/μl
- RBC ([3]; Day 21, 0.8 mg/Kg): 8.1 1012/l
- Total protein ([3]; Day 21, 0.8 mg/Kg): 5.2 g/dL
- Triglyceride ([3]; Day 21, 0.8 mg/Kg): 118 mg/dL
- Urea ([3]; Day 21, 0.8 mg/Kg): 71 mg/dL
- WBC ([3]; Day 21, 0.8 mg/Kg): 1.7 103/μl
- LYMPH ([3]; Day 21, 0.8 mg/Kg): 77.9%
- ALP ([3]; Day 28, 0.08 mg/Kg): 199 U/L
- ALT/SGPT ([3]; Day 28, 0.08 mg/Kg): 177 U/L
- AST/SGOT ([3]; Day 28, 0.08 mg/Kg): 136 U/L
- Cholesterol ([3]; Day 28, 0.08 mg/Kg): 238 mg/dL
- Creatine ([3]; Day 28, 0.08 mg/Kg): 0.13 mg/dL
- HCT ([3]; Day 28, 0.08 mg/Kg): 47.0%
- HDL ([3]; Day 28, 0.08 mg/Kg): 133 mg/dL
- HGB ([3]; Day 28, 0.08 mg/Kg): 14 g/dL
- LDL ([3]; Day 28, 0.08 mg/Kg): 111 mg/dL
- MCHC ([3]; Day 28, 0.08 mg/Kg): 29.0 g/dL
- MCV ([3]; Day 28, 0.08 mg/Kg): 58.0 fL
- PLT ([3]; Day 28, 0.08 mg/Kg): 1475 103/μl
- RBC ([3]; Day 28, 0.08 mg/Kg): 8.1 106/μl
- Total protein ([3]; Day 28, 0.08 mg/Kg): 6.5 g/dL
- Triglyceride ([3]; Day 28, 0.08 mg/Kg): 135 mg/dL
- Urea ([3]; Day 28, 0.08 mg/Kg): 62 mg/dL
- WBC ([3]; Day 28, 0.08 mg/Kg): 6.7 103/μl
- ALP ([3]; Day 28, 0.8 mg/Kg): 252 U/L
- ALT/SGPT ([3]; Day 28, 0.8 mg/Kg): 134 U/L
- AST/SGOT ([3]; Day 28, 0.8 mg/Kg): 125 U/L
- Cholesterol ([3]; Day 28, 0.8 mg/Kg): 240 mg/dL
- Creatine ([3]; Day 28, 0.8 mg/Kg): 0.12 mg/dL
- HCT ([3]; Day 28, 0.8 mg/Kg): 31.0%
- HDL ([3]; Day 28, 0.8 mg/Kg): 128 mg/dL
- HGB ([3]; Day 28, 0.8 mg/Kg): 11 g/dL
- LDL ([3]; Day 28, 0.8 mg/Kg): 113 mg/dL
- MCHC ([3]; Day 28, 0.8 mg/Kg): 34.0 g/dL
- MCV ([3]; Day 28, 0.8 mg/Kg): 60.0 fL
- PLT ([3]; Day 28, 0.8 mg/Kg): 1053 103/μl
- RBC ([3]; Day 28, 0.8 mg/Kg): 5.1 106/μl
- Total protein ([3]; Day 28, 0.8 mg/Kg): 6.1 g/dL
- Triglyceride ([3]; Day 28, 0.8 mg/Kg): 132 mg/dL
- Urea ([3]; Day 28, 0.8 mg/Kg): 50 mg/dL
- WBC ([3]; Day 28, 0.8 mg/Kg): 5.6 103/μl
